For 16 compounds, Ki results are on record in BindingDB's records for PubMed 1347569 (Stanford University, 1992).

Where a name gives a salt, the structure may show the parent alone.

Assay [1] addresses T1, 5-hydroxytryptamine receptor 2C (Rattus norvegicus, UniProt P08909).
T1 sequence (P08909 whole entry): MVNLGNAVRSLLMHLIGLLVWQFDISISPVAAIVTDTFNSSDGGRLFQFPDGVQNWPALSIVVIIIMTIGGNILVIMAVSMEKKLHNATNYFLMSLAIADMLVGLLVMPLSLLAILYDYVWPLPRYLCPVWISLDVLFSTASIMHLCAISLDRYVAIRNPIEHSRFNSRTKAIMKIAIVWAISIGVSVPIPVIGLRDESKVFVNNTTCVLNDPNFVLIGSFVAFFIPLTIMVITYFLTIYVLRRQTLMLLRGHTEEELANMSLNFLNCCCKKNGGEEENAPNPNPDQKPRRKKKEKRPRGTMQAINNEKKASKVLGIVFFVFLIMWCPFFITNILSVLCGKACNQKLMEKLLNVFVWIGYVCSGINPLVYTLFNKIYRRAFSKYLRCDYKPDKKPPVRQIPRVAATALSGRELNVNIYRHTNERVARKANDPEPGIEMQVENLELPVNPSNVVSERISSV

Assay [2] deals with 5-hydroxytryptamine receptor 2A (Rattus norvegicus, UniProt P14842).
Sequence of 5-hydroxytryptamine receptor 2A (P14842 whole entry): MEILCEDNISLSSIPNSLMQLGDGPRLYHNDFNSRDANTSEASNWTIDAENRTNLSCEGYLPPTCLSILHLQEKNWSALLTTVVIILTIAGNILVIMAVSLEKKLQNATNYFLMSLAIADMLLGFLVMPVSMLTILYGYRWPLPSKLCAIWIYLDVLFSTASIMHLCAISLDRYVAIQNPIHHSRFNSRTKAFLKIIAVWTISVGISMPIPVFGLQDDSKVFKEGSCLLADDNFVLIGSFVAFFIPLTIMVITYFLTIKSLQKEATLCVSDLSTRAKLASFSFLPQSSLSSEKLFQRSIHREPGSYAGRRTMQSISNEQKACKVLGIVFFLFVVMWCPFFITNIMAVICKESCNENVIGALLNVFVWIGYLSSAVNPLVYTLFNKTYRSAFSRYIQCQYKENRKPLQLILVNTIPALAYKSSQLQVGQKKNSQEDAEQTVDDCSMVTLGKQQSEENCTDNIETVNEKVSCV

With `O=C1CC2(CCCC2)CC(=O)N1CCCCN1CCN(c2nsc3ccccc23)CC1` [TIOSPERONE], the affinity in assay [1] corresponds to a Ki of 9.7 nM.

Regarding `CN1CCCCC1CCN1c2ccccc2Sc2ccc([S+](C)[O-])cc21` (stereo unspecified), the Ki (usually a dissociation constant, usually derived from enzyme kinetics or from competition with a known ligand) in assay [1] was found to be 79 nM; in assay [2] it was 6.3 nM.

Consider `CN1CCN(C2=Nc3cscc3C(=CC#N)c3cscc32)CC1` [NSC_3086153], for which the Ki in assay [1] was 62 nM; in assay [2], 39.8 nM.

On to `CN1CCc2cc(Cl)c(O)cc2[C@@H](c2ccccc2)C1` [SCH 23390,R(+)], for which the Ki in assay [1] turned out to be 13.4 nM; in assay [2], 19.9 nM.

As to `c1ccc2nc(N3CCNCC3)ccc2c1` [2-Piperazin-1-yl-quinoline (Quipazine)], the Ki in assay [1] was found to be 336 nM; in assay [2], 613 nM.

For the compound `O=c1[nH]c2ccccc2n1C1CCN(CCCC(c2ccc(F)cc2)c2ccc(F)cc2)CC1` [1-(1-(4,4-bis(4-fluorophenyl)butyl)piperidin-4-yl)-1H-benzo[d]imidazol-2(3H)-one], the figures for the Ki in assay [1] and in assay [2] were more than 10000 nM and 7.9 nM, respectively.

As for `CC1CCN(CCCC(=O)c2ccc(F)cc2)CC1` [CAS_3575-80-2], the Ki in assay [1] was 1340 nM.

In the case of `CN1CCN(C2=Cc3cc(Cl)ccc3C(=CC#N)c3ccccc32)CC1` [CAS_79781-95-6], the Ki in assay [1] stood at 23 nM; in assay [2] it was 0.79 nM.

Turning to `O=c1[nH]c2ccccc2n1CCCN1CCC(n2c(=O)[nH]c3cc(Cl)ccc32)CC1`, the Ki in assay [1] is more than 10000 nM; in assay [2], 294 nM.

In assay [1], `CN1CCN(CC/C=C2/c3ccccc3Sc3ccc(S(=O)(=O)N(C)C)cc32)CC1` [MLS000028463] gave a Ki of 1550 nM.

Turning to `CN1CCN(C2=Nc3cc(F)ccc3Cc3ccccc32)CC1`, the figures for the Ki in assay [1] and in assay [2] were 18.2 nM and 7.9 nM, respectively.

In assay [1], `CCNC(=O)N1CCN(CCCC(c2ccc(F)cc2)c2ccc(F)cc2)CC1` registered a Ki of 1150 nM. This lies in the single-digit micromolar range.

With `CCN(CC)CCNC(=O)c1cc(Cl)c(N)cc1OC` [4-amino-5-chloro-N-[2-(diethylamino)ethyl]-2-methoxy-benzamide;hydrochloride], the Ki in assay [1] was more than 10000 nM.

For `Clc1cncc(N2CCNCC2)n1` [L-630,571], the inhibitory constant (Ki) in assay [1] was 255 nM; in assay [2], more than 10000 nM.

Regarding `OCCN1CCN(CC/C=C2/c3ccccc3Sc3ccc(C(F)(F)F)cc32)CC1` [(cis) 2-{4-[3-(2-Trifluoromethyl-thioxanthen-9-ylidene)-propyl]-piperazin-1-yl}-ethanol(Flupentixol)], the values for the Ki in assay [1] and in assay [2] were 102 nM and 2 nM, respectively.

As to `O=C(c1ccc(F)cc1)C1CCN(CCn2c(=O)[nH]c3ccccc3c2=O)CC1` [3-(2-{4-[(4-fluorophenyl)carbonyl]piperidin-1-yl}ethyl)-1,2,3,4-tetrahydroquinazoline-2,4-dione], affinity in assay [1] was put at a Ki of 28.5 nM. That is a double-digit nanomolar value.
